Test results: patent US12673039B2, “Methods of inducing autophagy using coumarin derivatives and related compounds” (Buck Institute for Research on Aging, priority 2019, dated 2026)

Assays:
SH-SY5Y cells = assay: Autophagic flux (LC3-II ± bafilomycin A1) in SH-SY5Y cells; type: cell-based, human; conditions: presence and absence of bafliomycin A1
Experimental: FIG. 23, panels A-H: FXR modulation enhances HLH-30 expression in human neuronal SH-SY5Y cells. Panel A) Effects of AIC106 on human FXR activity was determined in a mammalian one-hybrid based kit assay by quantifying changes in the luciferase activity of FXR ligand (GW4064, GW) induced treatment. [N=3 independent experiments (mean±SD). ****p<0.0001, by one-way ANOVA with Tukey's multiple comparisons test]. Panel B) Protein expression of TFEB, cathepsin-D (CAT-D) and small heterodimer partner-1 (SHP-1) was determined by immunoblot in neuronal SH-SY5Y cells post-24 hours of treatment with AIC106 and DMSO-control. Panel C) AIC106 enhances autophagic flux in neuronal SH-SY5Y cells. Autophagic flux in DMSO-control and AIC106 treated neuronal cells was determined by quantifying levels of autophagosome specific LC3-II protein both in presence and absence of autophagy inhibitor bafliomycin A1 (Baf A, 10 nM). Panel D) Relative fold change in the band intensity of LC3-II protein, normalized to loading control actin. Values are relative to DMSO-control. […] Panel E) Effects of AIC106 treatment for 72 hours on basal TAU and phosphorylated-TAU in differentiated human neuronal SH-SHY5Y and heterozygous TSC1(+/−) mutant SH-SY5Y neuronal cells were quantitated by immunoblotting following total protein extraction. […]

C. elegans = C. elegans lifespan assays; type: in vivo
Description: FIG. 21, panels A-F: AIC106 prevents neuronal loss and proteotoxicity in strains expressing human neurotoxic proteins. Panel A) Dopaminergic neuronal loss in day-5 UA44 worms was quantified by scoring percentage of worms with intact 4-CEP neurons in AIC106 and DMSO-control treatment. [N=3 independent experiments (mean±SD). ***p<0.001, by one-way ANOVA with Tukey's multiple comparisons test]. Motor function in (panel B) day-7 NL5901 and (panel C) day-5 CL2006 worms were quantified by scoring number of thrashes for an individual worm over the period of 30 seconds (dots) in AIC106 and DMSO-control treatment. [N=3 independent experiments (mean±SD). **p<0.01, ***p<0.001 and ****p<0.0001, by one-way ANOVA with Tukey's multiple comparisons test]. Panel D) Motor function in temperature sensitive (enhanced paralysis at 25° C.) CL4176 worms was determined by scoring percent of worms paralyzed in AIC106 and DMSO-control treatment. [N=3 independent experiments (mean±SD). **p<0.01, by one-way ANOVA with Tukey's multiple comparisons test]. Panel E) Lifespan analysis of CL6049 worms exposed to AIC106 and DMSO-control. [N=2 independent experiments, Treatment (median survival in days, P value compared to DMSO-control): DMSO-control (12), AIC106 10 μM (15, p<0.01), 20 μM (15, p<0.0001) and 50 μM (17, p<0.0001). P-value calculated by Logrank test]. Panel F) Effect of AIC106 on polyQ40 aggregation was determined by scoring number of polyQ40-YFP fluorescent puncta in an individual AM141 worm treated with AIC106 and DMSO-control. [N=3 independent experiments (mean±SD). *p<0.05 and ***p<0.001, by one-way ANOVA with Tukey's multiple comparisons test].
FIG. 27, panels A-C: AIC106 induces mitophagy and increases lifespan. Panel A) Relative fold change in mRNA of key mitophagy genes including dct-1, pink-1 and pdr-1 was quantified by qRT-PCR after DMSO-control and AIC106 24 hours treatment in young adult N2 and hlh-30(tm1978) mutants. [N=3 independent experiments (mean±SD). **p<0.01 and ****p<0.0001, by two-way ANOVA with Sidak's multiple comparisons test]. Short exposure (1 week) of AIC106 increased survival of (panel B) wild type N2: DMSO-control (median-12 days), AIC106 50 μM (median-15 days, p<0.0001) and (panel C) mitophagy deficient pdr-1(tm598): mutant DMSO-control (median-15 days), AIC106 50 μM (median −17 days, p<0.001)]. [N=3 independent experiments, P value compared to respective DMSO-control and calculated by Logrank test).
FIG. 28, panels A-B: AIC106 prevents neuronal loss and proteotoxicity in strains expressing human neurotoxic proteins. Panel A) Motor function in day-7 NL5901 were quantified by scoring number of thrashes for an individual worm over the period of 30 seconds (dots) in AIC106 and DMSO-control treatment. [N=3 independent experiments (mean±SD). ***p<0.001 and ****p<0.0001, by one-way ANOVA with Tukey's multiple comparisons test]. Panel B) Lifespan analysis of CL6049 worms exposed to AIC106 and DMSO-control. [N=2 independent experiments, Treatment (median survival in days, P value compared to DMSO-control): DMSO-control RNAi (18), CL6049-AIC106 control RNAi (21, p<0.0001), CL6049-AIC106 hlh-30 RNAi (17, p<0.0001) and 50 μM (17, p<0.0001). P-value calculated by Logrank test].
Lifespan assays for CL6049 and pdr-1(tm598) strains was performed after treating day-1 adult worms with DMSO or AIC106. A synchronized 35-40 young day-1 adult worms were transferred to each 35 mm compound-treated plates supplemented with FuDR containing control DMSO or AIC106 and kept at 20° C. Worms were scored as alive, dead, or lost every alternate day. […] Worms that died from causes other than aging, such as sticking to the plate walls, internal hatching of eggs (bagging), or gonadal extrusion were censored as lost. Worms were transferred to fresh-drugged plates every 3-5 days. All lifespan experiments were performed at 20° C.

In the case of `O=c1oc2c3c4c(cc2c2c1CCC2)CCCN4CCC3` [C1, 2,3,6,7,10,11-Hexahydro-1H,5H-cyclopenta(3,4)(1)benzopyrano(6,7,8-ij)quinolizin-12(9H)-one], the “autophagic flux (LC3 turnover)” value (SH-SY5Y cells) is reported as “enhanced autophagic flux”, the median survival (C. elegans; CL6049, 50 μM as listed in FIG. 28 panel B legend) is reported as 17 days and the median survival (C. elegans; CL6049, control RNAi, DMSO-control RNAi 18) is reported as 21 days. The median survival (C. elegans; CL6049, hlh-30 RNAi) was 17 days, the median survival (C. elegans; CL6049 worms, 10 μM, DMSO-control 12) was 15 days and the median survival (C. elegans; CL6049 worms, 20 μM, DMSO-control 12) was 15 days. For the same compound, the median survival (C. elegans; CL6049 worms, 50 μM, DMSO-control 12) was 17 days, the “human TDP-43 toxicity (survival)” value (C. elegans; CL6049 worms, dose dependent) was “protected against human TDP-43 toxicity” and the lifespan (C. elegans; short treatment (1 week post-development)) was “significant increase in lifespan of both wild type N2 and pdr-1 mutant”.
